Values after ≈ are worked out from the molar mass of the structure shown.
Tested on: Pseudomonas aeruginosa
Assay: Antibacterial activity against Pseudomonas aeruginosa PAO1 after 24 hrs by two-fold serial dilution method
Assay type: functional
Details: PAO1, 24 h

MIC	Compound
187 µM (≈ 125 µg/mL)	CCOC(=O)C1=C(N/N=C(\c2ccc([N+](=O)[O-])cc2)N2CCN(c3ccc(F)cc3)CC2)Nc2[nH]nc(C)c2C1c1ccc(N(C)C)cc1 (stereo not given)
281 µM (≈ 125 µg/mL)	CCOC(=O)C1=C(N/C=N/c2ccccn2)Nc2[nH]nc(C)c2C1c1ccc(N(C)C)cc1 (stereo not given)

Compound	MIC
CCOC(=O)C1=C(NN=C(C(C)=O)C(C)=O)Nc2[nH]nc(C)c2C1c1ccc(N(C)C)cc1 (stereo not given)	552 µM (≈ 250 µg/mL)

Tested on: Ehrlich
Assay: Antitumor activity against mouse EAC cells allografted in Swiss mouse assessed as viable tumor cell count at 0.5 mg/mouse administered for 9 days (reference value: 77.41 10^6/ml)
Assay type: functional
Details: not given

Compound	Activity
CCOC(=O)C1=C(NN=C(C(C)=O)C(C)=O)Nc2[nH]nc(C)c2C1c1ccc(N(C)C)cc1 (stereo not given)	27.53 ×10⁶ /ml

Tested on: Aspergillus flavus
Assay: Antifungal activity against Aspergillus flavus 3375 after 48 hrs by two-fold serial dilution method
Assay type: functional
Details: Aspergillus flavus, 3375, 48 h

MIC	Compound
3000 µM (≈ 2000 µg/mL)	CCOC(=O)C1=C(N/N=C(\c2ccc([N+](=O)[O-])cc2)N2CCN(c3ccc(F)cc3)CC2)Nc2[nH]nc(C)c2C1c1ccc(N(C)C)cc1 (stereo not given)
281 µM (≈ 125 µg/mL)	CCOC(=O)C1=C(N/C=N/c2ccccn2)Nc2[nH]nc(C)c2C1c1ccc(N(C)C)cc1 (stereo not given)

Compound	MIC
CCOC(=O)C1=C(NN=C(C(C)=O)C(C)=O)Nc2[nH]nc(C)c2C1c1ccc(N(C)C)cc1 (stereo not given)	1100 µM (≈ 500 µg/mL)

Tested on: Mus musculus
Assay: Toxicity in Swiss albino mouse implanted with mouse EAC cells assessed as RBC count at 0.5 mg/mouse administered for 9 days (reference value: 3.59 10^6/mm3)
Assay type: organism-based
Details: in vivo, 216 h

Compound	Activity
CCOC(=O)C1=C(NN=C(C(C)=O)C(C)=O)Nc2[nH]nc(C)c2C1c1ccc(N(C)C)cc1 (stereo not given)	5.65 ×10⁶ /mm3

Tested on: Mus musculus
Assay: Toxicity in Swiss albino mouse implanted with mouse EAC cells assessed as hemoglobin level at 0.5 mg/mouse administered for 9 days (reference value: 7.05 g/dl)
Assay type: organism-based
Details: in vivo, 216 h

Compound	Activity
CCOC(=O)C1=C(NN=C(C(C)=O)C(C)=O)Nc2[nH]nc(C)c2C1c1ccc(N(C)C)cc1 (stereo not given)	13.45 g/dL

Tested on: WISH
Assay: Cytotoxicity against human WISH cells after 48 hrs by MTT assay
Assay type: cell-based
Details: not given

Compound	IC50
CCOC(=O)C1=C(NN=C(C(C)=O)C(C)=O)Nc2[nH]nc(C)c2C1c1ccc(N(C)C)cc1 (stereo not given)	58.7 µM

Tested on: Ehrlich
Assay: Antitumor activity against mouse EAC cells allografted in Swiss mouse assessed as mean survival time at 0.5 mg/mouse administered for 9 days (reference value: 18 day)
Assay type: functional
Details: not given

Compound	MSD
CCOC(=O)C1=C(NN=C(C(C)=O)C(C)=O)Nc2[nH]nc(C)c2C1c1ccc(N(C)C)cc1 (stereo not given)	49 days

Tested on: Aspergillus fumigatus
Assay: Antifungal activity against Aspergillus fumigatus 293 after 48 hrs by two-fold serial dilution method
Assay type: functional
Details: Aspergillus fumigatus, 293, 48 h

MIC	Compound
3000 µM (≈ 2000 µg/mL)	CCOC(=O)C1=C(N/N=C(\c2ccc([N+](=O)[O-])cc2)N2CCN(c3ccc(F)cc3)CC2)Nc2[nH]nc(C)c2C1c1ccc(N(C)C)cc1 (stereo not given)
281 µM (≈ 125 µg/mL)	CCOC(=O)C1=C(N/C=N/c2ccccn2)Nc2[nH]nc(C)c2C1c1ccc(N(C)C)cc1 (stereo not given)

Compound	MIC
CCOC(=O)C1=C(NN=C(C(C)=O)C(C)=O)Nc2[nH]nc(C)c2C1c1ccc(N(C)C)cc1 (stereo not given)	4420 µM (≈ 2000 µg/mL)

Tested on: Bacillus cereus
Assay: Antibacterial activity against Bacillus cereus UW 85 after 24 hrs by two-fold serial dilution method
Assay type: functional
Details: UW 85, 24 h

MIC	Compound
374 µM (≈ 250 µg/mL)	CCOC(=O)C1=C(N/N=C(\c2ccc([N+](=O)[O-])cc2)N2CCN(c3ccc(F)cc3)CC2)Nc2[nH]nc(C)c2C1c1ccc(N(C)C)cc1 (stereo not given)
70.1 µM (≈ 31.2 µg/mL)	CCOC(=O)C1=C(N/C=N/c2ccccn2)Nc2[nH]nc(C)c2C1c1ccc(N(C)C)cc1 (stereo not given)

Compound	MIC
CCOC(=O)C1=C(NN=C(C(C)=O)C(C)=O)Nc2[nH]nc(C)c2C1c1ccc(N(C)C)cc1 (stereo not given)	552 µM (≈ 250 µg/mL)

Tested on: Ehrlich
Assay: Antitumor activity against mouse EAC cells allografted in Swiss mouse assessed as increase in life span at 0.5 mg/mouse administered for 9 days relative to control
Assay type: functional
Details: not given

Compound	Activity
CCOC(=O)C1=C(NN=C(C(C)=O)C(C)=O)Nc2[nH]nc(C)c2C1c1ccc(N(C)C)cc1 (stereo not given)	172.2%

Tested on: WI-38
Assay: Cytotoxicity against human W138 cells after 48 hrs by MTT assay
Assay type: cell-based
Details: WI-38, 48 h

Compound	IC50
CCOC(=O)C1=C(NN=C(C(C)=O)C(C)=O)Nc2[nH]nc(C)c2C1c1ccc(N(C)C)cc1 (stereo not given)	61.4 µM

Tested on: Ehrlich
Assay: Antitumor activity against mouse EAC cells allografted in Swiss mouse assessed as tumor volume at 0.5 mg/mouse administered for 9 days (reference value: 10.15 mL)
Assay type: functional
Details: not given

Compound	Activity
CCOC(=O)C1=C(NN=C(C(C)=O)C(C)=O)Nc2[nH]nc(C)c2C1c1ccc(N(C)C)cc1 (stereo not given)	1.9 mL

Tested on: HepG2
Assay: Antitumor activity against human HepG2 cells assessed as inhibition of cell proliferation after 48 hrs by MTT assay
Assay type: functional, cell-based
Details: HepG2, 48 h

IC50	Compound
90.2 µM	CCOC(=O)C1=C(N/N=C(\c2ccc([N+](=O)[O-])cc2)N2CCN(c3ccc(F)cc3)CC2)Nc2[nH]nc(C)c2C1c1ccc(N(C)C)cc1 (stereo not given)
26.2 µM	CCOC(=O)C1=C(N/C=N/c2ccccn2)Nc2[nH]nc(C)c2C1c1ccc(N(C)C)cc1 (stereo not given)

Compound	IC50
CCOC(=O)C1=C(NN=C(C(C)=O)C(C)=O)Nc2[nH]nc(C)c2C1c1ccc(N(C)C)cc1 (stereo not given)	8.48 µM

Tested on: Staphylococcus aureus
Assay: Antibacterial activity against Staphylococcus aureus ATCC 29213 after 24 hrs by two-fold serial dilution method
Assay type: functional
Details: ATCC 29213, 24 h

MIC	Compound
749 µM (≈ 500 µg/mL)	CCOC(=O)C1=C(N/N=C(\c2ccc([N+](=O)[O-])cc2)N2CCN(c3ccc(F)cc3)CC2)Nc2[nH]nc(C)c2C1c1ccc(N(C)C)cc1 (stereo not given)
70.1 µM (≈ 31.2 µg/mL)	CCOC(=O)C1=C(N/C=N/c2ccccn2)Nc2[nH]nc(C)c2C1c1ccc(N(C)C)cc1 (stereo not given)

Compound	MIC
CCOC(=O)C1=C(NN=C(C(C)=O)C(C)=O)Nc2[nH]nc(C)c2C1c1ccc(N(C)C)cc1 (stereo not given)	2210 µM (≈ 1000 µg/mL)

Tested on: Candida albicans
Assay: Antifungal activity against Candida albicans after 48 hrs by two-fold serial dilution method
Assay type: functional
Details: not given

MIC	Compound
749 µM (≈ 500 µg/mL)	CCOC(=O)C1=C(N/N=C(\c2ccc([N+](=O)[O-])cc2)N2CCN(c3ccc(F)cc3)CC2)Nc2[nH]nc(C)c2C1c1ccc(N(C)C)cc1 (stereo not given)
561 µM (≈ 250 µg/mL)	CCOC(=O)C1=C(N/C=N/c2ccccn2)Nc2[nH]nc(C)c2C1c1ccc(N(C)C)cc1 (stereo not given)

Compound	MIC
CCOC(=O)C1=C(NN=C(C(C)=O)C(C)=O)Nc2[nH]nc(C)c2C1c1ccc(N(C)C)cc1 (stereo not given)	2210 µM (≈ 1000 µg/mL)

Tested on: HeLa
Assay: Antitumor activity against human HeLa cells assessed as inhibition of cell proliferation after 48 hrs by MTT assay
Assay type: functional, cell-based
Details: read-out: IC50

IC50	Compound
87 µM	CCOC(=O)C1=C(N/N=C(\c2ccc([N+](=O)[O-])cc2)N2CCN(c3ccc(F)cc3)CC2)Nc2[nH]nc(C)c2C1c1ccc(N(C)C)cc1 (stereo not given)
29.2 µM	CCOC(=O)C1=C(N/C=N/c2ccccn2)Nc2[nH]nc(C)c2C1c1ccc(N(C)C)cc1 (stereo not given)

Compound	IC50
CCOC(=O)C1=C(NN=C(C(C)=O)C(C)=O)Nc2[nH]nc(C)c2C1c1ccc(N(C)C)cc1 (stereo not given)	17 µM

Tested on: Chromobacterium violaceum
Assay: Inhibition of quorum sensing system in Chromobacterium violaceum ATCC 12472 assessed as diameter of violacein pigment inhibition at 5 mg/ml after 48 hrs
Details: not given

diameter of the inhibition zone (DIZ)	Compound
< 2 mm	CCOC(=O)C1=C(N/N=C(\c2ccc([N+](=O)[O-])cc2)N2CCN(c3ccc(F)cc3)CC2)Nc2[nH]nc(C)c2C1c1ccc(N(C)C)cc1 (stereo not given)
< 2 mm	CCOC(=O)C1=C(N/C=N/c2ccccn2)Nc2[nH]nc(C)c2C1c1ccc(N(C)C)cc1 (stereo not given)

Compound	diameter of the inhibition zone (DIZ)
CCOC(=O)C1=C(NN=C(C(C)=O)C(C)=O)Nc2[nH]nc(C)c2C1c1ccc(N(C)C)cc1 (stereo not given)	< 2 mm

Tested on: MCF7
Assay: Antitumor activity against human MCF7 cells assessed as inhibition of cell proliferation after 48 hrs by MTT assay
Assay type: functional, cell-based
Details: MCF7, 48 h

IC50	Compound
> 100 µM	CCOC(=O)C1=C(N/N=C(\c2ccc([N+](=O)[O-])cc2)N2CCN(c3ccc(F)cc3)CC2)Nc2[nH]nc(C)c2C1c1ccc(N(C)C)cc1 (stereo not given)
37.3 µM	CCOC(=O)C1=C(N/C=N/c2ccccn2)Nc2[nH]nc(C)c2C1c1ccc(N(C)C)cc1 (stereo not given)

Compound	IC50
CCOC(=O)C1=C(NN=C(C(C)=O)C(C)=O)Nc2[nH]nc(C)c2C1c1ccc(N(C)C)cc1 (stereo not given)	9.74 µM

Target: not listed separately
Assay: Displacement of methyl green from DNA (unknown origin) incubated in dark for 24 hrs
Details: not given

IC50	Compound
51.8 µM	CCOC(=O)C1=C(N/N=C(\c2ccc([N+](=O)[O-])cc2)N2CCN(c3ccc(F)cc3)CC2)Nc2[nH]nc(C)c2C1c1ccc(N(C)C)cc1 (stereo not given)
28 µM	CCOC(=O)C1=C(N/C=N/c2ccccn2)Nc2[nH]nc(C)c2C1c1ccc(N(C)C)cc1 (stereo not given)

Compound	IC50
CCOC(=O)C1=C(NN=C(C(C)=O)C(C)=O)Nc2[nH]nc(C)c2C1c1ccc(N(C)C)cc1 (stereo not given)	35.5 µM

Tested on: Mus musculus
Assay: Toxicity in Swiss albino mouse implanted with mouse EAC cells assessed as WBC count at 0.5 mg/mouse administered for 9 days (reference value: 20.53 10^3/mm3)
Assay type: organism-based
Details: in vivo, 216 h

Compound	Activity
CCOC(=O)C1=C(NN=C(C(C)=O)C(C)=O)Nc2[nH]nc(C)c2C1c1ccc(N(C)C)cc1 (stereo not given)	8.84 ×10³ /mm3

Tested on: Escherichia coli
Assay: Antibacterial activity against Escherichia coli ATCC 12435 after 24 hrs by two-fold serial dilution method
Assay type: functional
Details: ATCC 12435, 24 h

MIC	Compound
187 µM (≈ 125 µg/mL)	CCOC(=O)C1=C(N/N=C(\c2ccc([N+](=O)[O-])cc2)N2CCN(c3ccc(F)cc3)CC2)Nc2[nH]nc(C)c2C1c1ccc(N(C)C)cc1 (stereo not given)
281 µM (≈ 125 µg/mL)	CCOC(=O)C1=C(N/C=N/c2ccccn2)Nc2[nH]nc(C)c2C1c1ccc(N(C)C)cc1 (stereo not given)

Compound	MIC
CCOC(=O)C1=C(NN=C(C(C)=O)C(C)=O)Nc2[nH]nc(C)c2C1c1ccc(N(C)C)cc1 (stereo not given)	552 µM (≈ 250 µg/mL)

Source: ChEMBL document CHEMBL4270617, “Design, synthesis, antimicrobial, antiquorum-sensing and antitumor evaluation of new series of pyrazolopyridine derivatives” (Eur J Med Chem, 2018)
